Assays:
Assay in all cases: relative viability (nuclei count vs DMSO), 5 days (fraction); higher = more cells survive
[1] = test system: NCI-H650
How it was run: (§1)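 Medians of duplicate plates are given as relative viability. That measure is the nuclei count in treated wells divided by the count in vehicle wells. Counts were taken on 4× images of lung cancer cell lines in 1536-well plates, 5 days after pin-tool dosing the day after seeding with one drug alone or a fixed anchor-drug dose plus five library-drug doses (not always all listed) in √10 steps.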

[2] = test system: UMC-11
How it was run: as §1

[3] = test system: NCI-H838
How it was run: as §1

[4] = test system: HCC-15
How it was run: as §1

[5] = test system: NCI-H460
How it was run: as §1

[6] = test system: HARA
How it was run: as §1

[7] = test system: NCI-H2342
How it was run: as §1

[8] = test system: NCI-H1651
How it was run: as §1

[9] = test system: NCI-H522
How it was run: as §1

[10] = test system: NCI-H2347
How it was run: as §1

[11] = test system: COR-L23
How it was run: as §1

[12] = test system: NCI-H358
How it was run: as §1

[13] = test system: NCI-H2009
How it was run: as §1

[14] = test system: EPLC-272H
How it was run: as §1

[15] = test system: PC-14
How it was run: as §1

[16] = test system: NCI-H2085
How it was run: as §1

[17] = test system: NCI-H2126
How it was run: as §1

[18] = test system: LU99A
How it was run: as §1

[19] = test system: NCI-H1915
How it was run: as §1

[20] = test system: LC-2-ad
How it was run: as §1

[21] = test system: NCI-H1993
How it was run: as §1

[22] = test system: HCC-78
How it was run: as §1

[23] = test system: SW 1573
How it was run: as §1

## C[C@@H]1CN(CC(=O)Nc2ccc3c(c2)Cc2cccc(-c4cc(=O)cc(N5CCOCC5)o4)c2S3)C[C@H](C)O1 + CC(=O)Nc1cccc(-n2c(=O)n(C3CC3)c(=O)c3c(Nc4ccc(I)cc4F)n(C)c(=O)c(C)c32)c1 [Trametinib] (partner 0.02 µM)
[1]; first compound 0.04 µM
  relative viability: 0.954
[1]; first compound 0.1265 µM
  relative viability: 1
[1]; first compound 0.4 µM
  relative viability: 0.874
[1]; first compound 4 µM
  relative viability: 0.697
[2]; first compound 0.04 µM
  relative viability: 0.732
[2]; first compound 0.1265 µM
  relative viability: 0.757
[2]; first compound 0.4 µM
  relative viability: 0.868
[2]; first compound 4 µM
  relative viability: 0.65
[3]; first compound 0.04 µM
  relative viability: 0.688
[3]; first compound 0.1265 µM
  relative viability: 0.488
[3]; first compound 0.4 µM
  relative viability: 0.521
[3]; first compound 4 µM
  relative viability: 0.39
[4]; first compound 0.04 µM
  relative viability: 0.374
[4]; first compound 0.1265 µM
  relative viability: 0.331
[4]; first compound 0.4 µM
  relative viability: 0.308
[4]; first compound 4 µM
  relative viability: 0.348
[5]; first compound 0.04 µM
  relative viability: 0.155
[5]; first compound 0.1265 µM
  relative viability: 0.131
[5]; first compound 0.4 µM
  relative viability: 0.13
[5]; first compound 4 µM
  relative viability: 0.0347
[6]; first compound 0.04 µM
  relative viability: 0.785
[6]; first compound 0.1265 µM
  relative viability: 0.654
[6]; first compound 0.4 µM
  relative viability: 0.602
[6]; first compound 4 µM
  relative viability: 0.406
[7]; first compound 0.04 µM
  relative viability: 0.806
[7]; first compound 0.1265 µM
  relative viability: 0.743
[7]; first compound 0.4 µM
  relative viability: 0.818
[7]; first compound 4 µM
  relative viability: 0.721
[8]; first compound 0.04 µM
  relative viability: 0.874
[8]; first compound 0.1265 µM
  relative viability: 0.894
[8]; first compound 0.4 µM
  relative viability: 0.83
[8]; first compound 4 µM
  relative viability: 0.629
[9]; first compound 0.04 µM
  relative viability: 0.737
[9]; first compound 0.1265 µM
  relative viability: 0.749
[9]; first compound 0.4 µM
  relative viability: 0.724
[9]; first compound 4 µM
  relative viability: 0.816
[10]; first compound 0.04 µM
  relative viability: 0.273
[10]; first compound 0.1265 µM
  relative viability: 0.331
[10]; first compound 0.4 µM
  relative viability: 0.319
[10]; first compound 4 µM
  relative viability: 0.238
[11]; first compound 0.04 µM
  relative viability: 0.596
[11]; first compound 0.1265 µM
  relative viability: 0.611
[11]; first compound 0.4 µM
  relative viability: 0.624
[11]; first compound 4 µM
  relative viability: 0.447
[12]; first compound 0.04 µM
  relative viability: 0.131
[12]; first compound 0.1265 µM
  relative viability: 0.121
[12]; first compound 0.4 µM
  relative viability: 0.12
[12]; first compound 4 µM
  relative viability: 0.112
[13]; first compound 0.04 µM
  relative viability: 0.259
[13]; first compound 0.1265 µM
  relative viability: 0.261
[13]; first compound 0.4 µM
  relative viability: 0.22
[13]; first compound 4 µM
  relative viability: 0.197
[14]; first compound 0.04 µM
  relative viability: 0.281
[14]; first compound 0.1265 µM
  relative viability: 0.289
[14]; first compound 0.4 µM
  relative viability: 0.281
[14]; first compound 4 µM
  relative viability: 0.263
[15]; first compound 0.04 µM
  relative viability: 0.872
[15]; first compound 0.1265 µM
  relative viability: 0.694
[15]; first compound 0.4 µM
  relative viability: 0.719
[15]; first compound 4 µM
  relative viability: 0.467
[16]; first compound 0.04 µM
  relative viability: 0.51
[16]; first compound 0.1265 µM
  relative viability: 0.532
[16]; first compound 0.4 µM
  relative viability: 0.483
[16]; first compound 4 µM
  relative viability: 0.465
[17]; first compound 0.04 µM
  relative viability: 0.558
[17]; first compound 0.1265 µM
  relative viability: 0.573
[17]; first compound 0.4 µM
  relative viability: 0.561
[17]; first compound 4 µM
  relative viability: 0.557
[18]; first compound 0.04 µM
  relative viability: 0.508
[18]; first compound 0.1265 µM
  relative viability: 0.534
[18]; first compound 0.4 µM
  relative viability: 0.587
[18]; first compound 4 µM
  relative viability: 0.59
[19]; first compound 0.04 µM
  relative viability: 0.299
[19]; first compound 0.1265 µM
  relative viability: 0.291
[19]; first compound 0.4 µM
  relative viability: 0.284
[19]; first compound 4 µM
  relative viability: 0.294
[20]; first compound 0.04 µM
  relative viability: 0.897
[20]; first compound 0.1265 µM
  relative viability: 0.867
[20]; first compound 0.4 µM
  relative viability: 0.892
[20]; first compound 4 µM
  relative viability: 0.854
[21]; first compound 0.04 µM
  relative viability: 0.521
[21]; first compound 0.1265 µM
  relative viability: 0.565
[21]; first compound 0.4 µM
  relative viability: 0.521
[21]; first compound 4 µM
  relative viability: 0.478
[22]; first compound 0.04 µM
  relative viability: 0.713
[22]; first compound 0.1265 µM
  relative viability: 0.751
[22]; first compound 0.4 µM
  relative viability: 0.859
[22]; first compound 4 µM
  relative viability: 0.711
[23]; first compound 0.04 µM
  relative viability: 0.646
[23]; first compound 0.1265 µM
  relative viability: 0.564
[23]; first compound 0.4 µM
  relative viability: 0.572
[23]; first compound 4 µM
  relative viability: 0.627
